# US20210030867A1, “ADJUVANT COMPOSITION CONTAINING ALUMINUM AND VACCINE COMPOSITION CONTAINING THE SAME” (TERUMO KABUSHIKI KAISHA, priority 2015, published 2021)
# B1: antigen alone: OVA protein (Ovalbumin, low endotoxin) administered alone as comparative sample (protein, UniProt P01012 2-386, looked up)
# Ovalbumin: GSIGAASMEFCFDVFKELKVHHANENIFYCPIAIMSALAMVYLGAKDSTRTQINKVVRFDKLPGFGDSIEAQCGTSVNVHSSLRDILNQITKPNDVYSFSLASRLYAEERYPILPEYLQCVKELYRGGLEPINFQTAADQARELINSWVESQTNGIIRNVLQPSSVDSQTAMVLVNAIVFKGLWEKAFKDEDTQAMPFRVTEQESKPVQMMYQIGLFRVASMASEKMKILELPFASGTMSMLVLLPDEVSGLEQLESIINFEKLTEWTSSNVMEERKIKVYLPRMKMEEKYNLTSVLMAMGITDVFSSSANLSGISSAESLKISQAVHAAHAEINEAGREVVGSAEAGVDAASVSEEFRADHPFLFCIKHIATNAVLFFGRCVSP
# modifications: low endotoxin
# Tests used:
# [1] = Release test (measurement of leakage; membrane-disruption function); conditions: for pH 5.0 Leakage (%) Lb5.0 Amphipathic substance alone / pH 7.4 Leakage (%) Lb7.4 Amphipathic substance alone: labelled amphipathic substance alone; for pH 5.0 Leakage (%) La5.0 pH-sensitive compound alone / pH 7.4 Leakage (%) La7.4 pH-sensitive compound alone: labelled pH-sensitive compound alone
# Procedure: The term “membrane-disruption function” means a function to bring about release in the release test. The release test described herein is a test consisting of the steps of adding liposomes (dispersion) embracing an aqueous solution containing a quenching substance and a fluorescent substance and a dispersion of an evaluation sample to a properly pH-adjusted aqueous solution, incubating the resulting aqueous solution at 37° C. for 90 minutes or 30 minutes, and measuring the intensity of fluorescence of the incubated aqueous solution. This method makes it possible to measure the amount of the fluorescent substance which has been released from the liposomes, and to confirm the membrane-disruption function of the pH-sensitive carrier. Note that the release test will be described in more detail in the Examples to be described later.
# The leakage was evaluated according to the method described in K. Kono et al., Bioconjugate Chem. 2008 19 1040-1048. The evaluation was performed using EYPC liposomes which contain Pyranine as a fluorescent substance and DPX as a quencher.
# 3,000 nmol of EYPC dissolved in chloroform was measured and placed in a 10-mL eggplant-shaped flask, and the EYPC was made into thin film by means of a rotary evaporator. To the flask was added 500 μL of a Pyranine solution (Pyranine: 35 mM, DPX: 50 mM, MES: 25 mM, pH 7.4), followed by dispersion using an ultrasonic irradiator (USC-J), and then the resulting dispersion was passed through a polycarbonate film having a pore diameter of 100 nm by use of an extruder, so as to make the particle diameter uniform. The resulting dispersion underwent substitution of the outer aqueous layer using MES Buffer and G100 column, to obtain a dispersion of EYPC liposomes embracing the fluorescent substance. The concentration of the phospholipid was determined using phospholipid C-test Wako, and it was adjusted with MES Buffer so that phospholipid became 1.0 mmol/L.
# 20 μL of the dispersion of EYPC liposomes adjusted in concentration and 20 μL of an evaluation sample dispersion were added to 2960 μL of pH-adjusted MES Buffer, and the resulting mixture was subjected to incubation at 37° C. for 90 or 30 minutes (Values resulting from incubation for 90 minutes are adopted in Examples, unless otherwise specified.). Fluorescence at Ex461 nm and Em512 nm was observed by use of a spectrophotometer FP-6500 to monitor the leakage.
# Note that the leakage was calculated assuming that the value in the case of using the dispersion alone of EYPC liposomes is 0% and the value in the case of adding 30 μL of 10-fold diluted Triton-X100 is 100%. Specifically, the leakage was calculated according to the following formula. Note that in the following formula, L represents the intensity of fluorescence measured, L0 represents the intensity of fluorescence of only the dispersion of EYPC liposomes embracing the fluorescent substance, and L100 represents the intensity of fluorescence in the case of adding Triton-X100.
# First, the influence on the effect of promoting the membrane-disruption function was examined. […] After incubating the evaluation samples overnight, part (20 μL) of each evaluation sample was put to a release test. The release test was conducted according to the above-described release test.
# [2] = test system: cell-mediated immunity (CTL); assay: Induction of cell-mediated immunity (CTL) in immunized mice, IFNγ ELIspot method on spleen cells; format: in vivo, C57BL/6N mouse
# Procedure: Administration was performed under anesthesia. In the case of subcutaneous administration, it is carried out by subcutaneous injection, 100 μL/head, at one position on the back. […] As for the pH-sensitive carrier, a fundamental dose concentration for the amphipathic substance was 100 nmol/head, that for the pH-sensitive compound was 10 to 640 nmol/head, and part thereof was administered in diluted conditions. As the antigen, OVA protein or OVA peptide was used, the dose being 80 μg/head. […] In the case of evaluating cell-mediated immunity, administration was performed once and assay was conducted seven days after the administration.
# The mouse was euthanized on the seventh day after the last administration and had its spleen extracted. After addition of 3.0 mL of RPMI medium containing 10% serum, the spleen was treated by the BD Falcon cell strainer, to obtain a suspension of cells. The cells were subjected to hemolysis with RBC lysis buffer, followed by washing with RPMI medium containing 10% serum. The cells were dispersed into RPMI medium containing 10% serum, after which the number of cells was counted, and a dispersion of spleen cells was obtained.
# The ELIspot method was carried out by using the Mouse IFNγ ELISPOT Set. One day before cell inoculation, the 96-well ELispot plate was allowed to adsorb the detection antibody attached to the kit, to make the plate. The thus made plate was washed with RPMI medium containing 10% serum, after which 200 μL of 10% serum-containing RPMI medium was added thereto, and the plate was left to stand at 37° C. for two hours for blocking. The plate was washed with 10% serum-containing RPMI medium. In the case where the antigen undergoes restimulation, 100 μL of 10% serum-containing RPMI medium containing 40 μg/mL of OVA peptide was added to the plate. […]
# The candidate substances were all used in an amount of 10 μg per mouse, and OVA protein was used as the antigen in an amount of 80 μg per mouse. […] Induction of cell-mediated immunity was evaluated according to the ELispot method described hereinabove. […]
# [3] = subcutaneous, once, assay after seven days, candidate substance/alum 10 μg, OVA protein 80 μg per mouse, carrier where used 100 nmol DLPC + 160 nmol deoxycholic acid, restimulation with OVA peptide
Molecule,pH 5.0 Leakage (%) Lb5.0 Amphipathic substance alone ([1]; pH 5.0) [%],pH 7.4 Leakage (%) Lb7.4 Amphipathic substance alone [1] [%],other results
"CCCCCCCC/C=C\CCCCCCCC(=O)OCC(O)CO (centres unmarked) [Glycerol monooleate, glycerol monooleate]",6.0,4.1,
"CC(=O)Oc1c(C)c(C)c2c(c1C)CCC(C)(CCC[C@H](C)CCC[C@H](C)CCCC(C)C)O2 (mixture of isomers) [tocopherol acetate, DL-α-tocopherol acetate, reference compound]",,,"induction of cell-mediated immunity (spot formation, ELIspot) [2, 3]: did not induce cell-mediated immunity"
sorbitan trioleic acid ester [Span85],2.0,1.8,
polyoxyethylene sorbitan monostearic acid ester [Tween 60],6.7,3.8,
Polyoxyethylene 10 castor oil [Peg (10) castor oil],6.2,3.4,
sorbitan monooleate [Span80],7.3,4.4,
"CCCCCCCCCCCCCCCCCC(=O)OCC(CO)OC(=O)CCCCCCCCCCCCCCCCC (centres unmarked) [Glycerol distearate, glycerol distearate]",4.0,0.3,
"CCCCCCCCCC(=O)OC[C@H](COP(=O)([O-])OCC[N+](C)(C)C)OC(=O)CCCCCCCCC [DDPC, 1,2-didecanoyl-sn-glycero-3-phosphatidylcholine]",10.1,8.4,
CC(CCC(=O)NCC(=O)O)C1CCC2C3CCC4CC(O)CCC4(C)C3CC(O)C12C (centres unmarked) [Glycodeoxycholic acid],,,pH 5.0 Leakage (%) La5.0 pH-sensitive compound alone ([1]; pH 5.0): 5.9%; pH 7.4 Leakage (%) La7.4 pH-sensitive compound alone [1]: 1.6%
"CCCCCCCCCCCC(=O)OCC(O)COC(=O)CCCCCCCCCCC [α,α′-dilaurin]",0.8,1.0,
C[C@H](CCC(=O)O)[C@H]1CC[C@H]2[C@@H]3C[C@H](O)[C@@H]4C[C@H](O)CC[C@]4(C)[C@H]3CC[C@]12C [Hyodeoxycholic acid],,,pH 5.0 Leakage (%) La5.0 pH-sensitive compound alone ([1]; pH 5.0): 2.8%; pH 7.4 Leakage (%) La7.4 pH-sensitive compound alone [1]: 0.6%
"Cc1c(C)c2c(c(C)c1O)CCC(C)(CCCC(C)CCCC(C)CCCC(C)C)O2 (racemic) [Tocopherol, DL-α-tocopherol]",1.2,1.7,"induction of cell-mediated immunity (spot formation, ELIspot) ([2]; mouse, in vivo, sc): did not induce cell-mediated immunity"
sorbitan tristearic acid ester [Span65],4.2,1.5,
polyoxyethylene sorbitan monopalmitic acid ester [Tween 40],11.5,8.3,
sorbitan palimitic acid ester [Span40],1.6,0.6,
polyoxyethylene sorbitan monooleic acid ester [Tween 80],1.6,0.6,
C[C@H](CCC(=O)O)[C@H]1CC[C@H]2[C@@H]3[C@H](O)C[C@@H]4C[C@H](O)CC[C@]4(C)[C@H]3CC[C@]12C [Chenodeoxycholic acid],,,pH 5.0 Leakage (%) La5.0 pH-sensitive compound alone ([1]; pH 5.0): 3.1%; pH 7.4 Leakage (%) La7.4 pH-sensitive compound alone [1]: 1.1%
CC1(C)[C@@H](O[C@H]2O[C@H](C(=O)O)[C@@H](O)[C@H](O)[C@H]2O[C@@H]2O[C@H](C(=O)O)[C@@H](O)[C@H](O)[C@H]2O)CC[C@]2(C)[C@H]3C(=O)C=C4[C@@H]5C[C@@](C)(C(=O)O)CC[C@]5(C)CC[C@@]4(C)[C@]3(C)CC[C@@H]12 [Glycyrrhizinic acid],4.0,0.3,pH 5.0 Leakage (%) La5.0 pH-sensitive compound alone ([1]; pH 5.0): 3.0%; pH 7.4 Leakage (%) La7.4 pH-sensitive compound alone [1]: 0.8%
polyoxyethylene sorbitan monolauric acid ester [Tween 20],48.8,50.4,
"CCCCCCCCCCCC(=O)OC[C@H](COP(=O)([O-])OCC[N+](C)(C)C)OC(=O)CCCCCCCCCCC [DLPC, 1,2-dilauroyl-sn-glycero-3-phosphatidylcholine]",,,"pH 5.0 Leakage (%) Lb5.0 Amphipathic substance (DLPC) alone ([1]; pH 5.0, DLPC alone): 1.9%"
sorbitan stearic acid ester [Span60],4.3,1.6,
B1,,,"induction of cell-mediated immunity (spot formation, ELIspot) [2, 3]: did not induce cell-mediated immunity"
